Measurements taken from patent US8309546B2, “Morpholinopurine derivatives” (Daiichi Sankyo Company, Limited, priority 2008, dated 2012).
pIC50: −log10 of the molar value. Values joined by “and” are separate entries in the source; they are usually repeats but may differ in a detail not shown here. Equal values may be shown once.

How the values were obtained:
PI3Kα = PI3Kα (Homo sapiens, UniProt P42336); test: PI3K kinase activity inhibition assay; type: biochemical; details: Kinase-Glo Plus ATP detection, read-out: IC50 against PI3K
PI3Kα, sequence (P42336 whole entry, species assumed): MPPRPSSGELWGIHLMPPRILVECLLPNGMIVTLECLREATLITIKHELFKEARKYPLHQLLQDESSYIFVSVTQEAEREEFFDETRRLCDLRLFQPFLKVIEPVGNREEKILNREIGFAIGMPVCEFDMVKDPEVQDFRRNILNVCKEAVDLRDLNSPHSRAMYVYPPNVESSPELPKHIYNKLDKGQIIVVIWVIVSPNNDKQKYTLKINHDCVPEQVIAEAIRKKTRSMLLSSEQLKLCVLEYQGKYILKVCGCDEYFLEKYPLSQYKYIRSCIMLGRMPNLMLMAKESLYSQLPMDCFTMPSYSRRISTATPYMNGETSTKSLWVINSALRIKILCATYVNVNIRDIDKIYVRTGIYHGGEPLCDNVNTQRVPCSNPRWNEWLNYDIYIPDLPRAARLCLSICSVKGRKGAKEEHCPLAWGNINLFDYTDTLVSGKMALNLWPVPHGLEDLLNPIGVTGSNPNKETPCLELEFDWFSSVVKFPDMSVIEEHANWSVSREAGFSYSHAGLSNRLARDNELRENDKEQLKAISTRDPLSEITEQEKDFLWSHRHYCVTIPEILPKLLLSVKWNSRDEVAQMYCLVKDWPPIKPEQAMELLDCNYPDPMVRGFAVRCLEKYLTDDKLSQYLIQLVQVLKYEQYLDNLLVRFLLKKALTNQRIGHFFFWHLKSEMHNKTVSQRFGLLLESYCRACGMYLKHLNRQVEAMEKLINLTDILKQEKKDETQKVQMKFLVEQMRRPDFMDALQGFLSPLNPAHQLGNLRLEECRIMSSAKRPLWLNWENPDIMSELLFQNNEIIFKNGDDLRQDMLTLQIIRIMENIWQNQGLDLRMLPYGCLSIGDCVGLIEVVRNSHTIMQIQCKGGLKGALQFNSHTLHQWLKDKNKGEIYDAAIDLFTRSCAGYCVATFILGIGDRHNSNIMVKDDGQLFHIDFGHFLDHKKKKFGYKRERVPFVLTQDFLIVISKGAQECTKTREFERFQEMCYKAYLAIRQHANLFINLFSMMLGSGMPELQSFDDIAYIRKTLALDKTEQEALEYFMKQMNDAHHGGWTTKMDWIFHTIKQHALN
PI3Kα, sequence (P27986 whole entry partner, species assumed): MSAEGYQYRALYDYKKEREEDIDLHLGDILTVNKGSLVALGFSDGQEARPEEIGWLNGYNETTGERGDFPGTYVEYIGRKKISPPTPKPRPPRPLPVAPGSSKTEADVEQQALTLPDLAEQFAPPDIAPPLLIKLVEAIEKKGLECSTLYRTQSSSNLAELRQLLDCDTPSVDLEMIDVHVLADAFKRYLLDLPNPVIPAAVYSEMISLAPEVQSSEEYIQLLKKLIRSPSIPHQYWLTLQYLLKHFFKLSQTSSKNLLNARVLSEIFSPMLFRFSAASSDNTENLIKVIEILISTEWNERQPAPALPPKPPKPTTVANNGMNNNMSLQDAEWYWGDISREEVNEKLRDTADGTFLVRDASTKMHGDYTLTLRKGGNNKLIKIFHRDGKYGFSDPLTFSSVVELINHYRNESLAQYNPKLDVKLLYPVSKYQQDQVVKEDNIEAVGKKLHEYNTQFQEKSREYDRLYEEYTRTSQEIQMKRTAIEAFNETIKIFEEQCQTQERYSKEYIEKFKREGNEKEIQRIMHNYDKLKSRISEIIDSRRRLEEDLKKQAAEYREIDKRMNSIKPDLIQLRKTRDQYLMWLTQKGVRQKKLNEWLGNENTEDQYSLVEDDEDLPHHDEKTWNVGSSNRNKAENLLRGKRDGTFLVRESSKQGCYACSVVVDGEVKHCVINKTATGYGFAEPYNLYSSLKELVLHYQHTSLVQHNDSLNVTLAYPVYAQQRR
Protocol: PI3Kα kinase activity was determined in the presence and absence of a test compound. The test compound was dissolved in DMSO and diluted serially with an ATP solution (30 μm ATP, 50 mM HEPES, pH 7.4, 50 mM NaCl, 0.05% CHAPS, 10 mM MgCl2, and 5 mM dithiothreitol [DTT]). First, 7 μl each of the serially diluted test compound solutions was added to each well of a black 384-well plate. Subsequently, 7 μl of a phosphatidylinositol 4,5-bisphosphate (PIP2) solution (45 μm PIP2, 50 mM HEPES, pH 7.4, 50 mM NaCl, 0.05% CHAPS, 10 mM MgCl2, and 5 mM DTT) was added to each well of the 384-well plate. Finally, 7 μl of a solution containing PI3Kα (50 nM PI3Kα, 50 mM HEPES, pH 7.4, 50 mM NaCl, 0.05% CHAPS, 10 mM MgCl2, and 5 mM DTT) was added to each well of the 384-well plate to initiate a reaction. The mixture was reacted at room temperature for 2 hours and then 21 μl of the Kinase-Glo Plusreagent (Promega) was, added to each well of the 384-well plate to terminate the reaction. After the termination of the reaction, the solution was left standing for 15 minutes and then luminescence was measured with ARVO (PerkinElmer Co., Ltd.) to detect ATP remaining in the reaction solution.
The amount of ATP consumed in the reaction was obtained for each well and used as an indicator of PI3Kαkinase activity. The PI3Kα kinase activity in wells not containing the test compound was calculated by the following formula (1). Furthermore, the PI3Kα kinase activity in wells containing the test compound was calculated by the following formula (2). The PI3Kα inhibitory activity (%) of the test compound was calculated by the following formula (3). PI3Kα kinase activity in wells not containing the test compound=B−C (1) PI3Kα kinase activity in wells containing the test compound=B−P (2) PI3Kα inhibitory activity (%) of test compound=100−100×[(B−P)/(B−C)] (3) B: Measured value in wells not containing PI3Kα or the test compound C: Measured value in wells containing PI3Kα and not containing the test compound P: Measured value in wells containing PI3Kα and the test compound
Furthermore, an optimal curve was calculated with Graph Pad Prism 4 using concentrations of the serially diluted test compound solutions and PI3Kα inhibitory activity (%) at each concentration to obtain the concentration showing 50% inhibition as the IC50 value of PI3Kα inhibitory activity.

[1] = biological target: T1, human mTOR (His-tagged mTOR (1362C)) (Homo sapiens, UniProt P42345); test: mTOR kinase activity inhibition assay; type: biochemical; details: HTRF, read-out: IC50 against mTOR
T1 construct: the 1362 to 2549 amino acid portion on the C terminus side of human mTOR; His tag (N); made in house
T1 sequence (P42345 1362-2549): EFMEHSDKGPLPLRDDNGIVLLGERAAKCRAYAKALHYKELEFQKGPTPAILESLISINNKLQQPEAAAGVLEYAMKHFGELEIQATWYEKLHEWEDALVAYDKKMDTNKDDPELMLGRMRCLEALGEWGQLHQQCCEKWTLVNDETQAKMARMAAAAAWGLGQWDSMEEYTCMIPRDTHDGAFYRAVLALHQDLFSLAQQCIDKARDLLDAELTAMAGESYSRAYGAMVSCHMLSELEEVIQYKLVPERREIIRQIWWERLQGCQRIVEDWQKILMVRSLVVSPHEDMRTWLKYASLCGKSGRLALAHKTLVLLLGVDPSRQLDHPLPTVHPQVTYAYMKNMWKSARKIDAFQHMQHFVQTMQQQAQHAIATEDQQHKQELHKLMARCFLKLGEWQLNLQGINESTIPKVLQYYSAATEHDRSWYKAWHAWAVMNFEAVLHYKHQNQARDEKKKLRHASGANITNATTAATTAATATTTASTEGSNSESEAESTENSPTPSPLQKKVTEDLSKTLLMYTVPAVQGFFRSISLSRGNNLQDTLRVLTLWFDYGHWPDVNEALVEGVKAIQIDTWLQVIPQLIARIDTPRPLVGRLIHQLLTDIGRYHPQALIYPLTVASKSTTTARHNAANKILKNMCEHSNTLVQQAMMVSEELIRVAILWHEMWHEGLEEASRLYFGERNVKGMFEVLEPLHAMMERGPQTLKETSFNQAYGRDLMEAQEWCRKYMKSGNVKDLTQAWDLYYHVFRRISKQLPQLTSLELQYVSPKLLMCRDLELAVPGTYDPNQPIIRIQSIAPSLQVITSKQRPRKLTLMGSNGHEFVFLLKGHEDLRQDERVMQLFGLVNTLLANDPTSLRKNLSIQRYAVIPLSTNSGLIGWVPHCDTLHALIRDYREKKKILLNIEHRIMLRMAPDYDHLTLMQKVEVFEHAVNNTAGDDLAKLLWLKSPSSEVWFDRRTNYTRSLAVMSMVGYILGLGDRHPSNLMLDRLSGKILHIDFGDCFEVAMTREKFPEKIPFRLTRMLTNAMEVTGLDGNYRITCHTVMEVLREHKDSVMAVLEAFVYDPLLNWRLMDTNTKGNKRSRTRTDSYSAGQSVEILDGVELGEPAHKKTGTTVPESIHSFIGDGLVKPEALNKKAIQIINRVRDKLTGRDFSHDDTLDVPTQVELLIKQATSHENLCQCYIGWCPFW
Protocol: The mTOR kinase activity was determined in the presence and absence of a test compound. A substrate peptide is phosphorylated by mTOR kinase activity. A complex of streptavidin-XL665 and anti-phosphorylated S6K (Thr389) antibody-anti-mouse IgG-cryptate binds to this phosphorylated peptide. At this time, irradiation of excitation light induces transfer of fluorescence resonance energy from the excited cryptate to XL665, emitting fluorescence at 665 nm. Utilizing this principle, mTOR kinase activity was detected. When the mTOR inhibitor is present, phosphorylation of a substrate peptide is inhibited, and the biding of the above-mentioned complex to the substrate peptide is inhibited.
A His tag was introduced into the N terminus end of the 1362 to 2549 amino acid portion on the C terminus side of human mTOR, and a cell line was prepared, so that His-tagged mTOR should be constantly expressed in a HEK293 cell. A cell lysate was prepared from this HEK293 cell which constantly expressed His-tagged mTOR (1362C), and a crude product of His-tagged mTOR (1362C) was obtained by a usual method utilizing His tag.
Subsequently, an mTOR enzyme solution was prepared which contained the above-mentioned His-tagged mTOR (1362C) enzyme and 8 μg/ml biotinylated peptide (Biotin-Ahx-[…]-amide [Sigma]), as well as 50 mM HEPES (pH 7.5), 20 mM MnCl2, 1 mg/ml BSA, a suitable amount of protease inhibitor cocktail (Complete EDTA free, Roche Ltd.), 100 ng/ml calyculin A, and 4 μg/ml cantharidin as other components.
The test compound was dissolved in dimethyl sulfoxide (DMSO) and serially diluted with 20 μm ATP solution (50 mM HEPES (pH 7.5), 20 μM ATP) to obtain concentrations required for the assay. 5 μl of this compound solution was added to each well of a 384-well small volume white plate manufactured by Greiner Bio-One Co., Ltd.
5 μl of the mTOR enzyme solution was added to the above-mentioned well containing the test compound and the resulting mixture was left standing for 3 hours room temperature to proceed an enzymatic reaction.
The same procedure was performed using a solution obtained by dissolving DMSO in 20 μM ATP solution as a positive control and a solution obtained by dissolving DMSO in 50 mM HEPES buffer (pH 7.5) as a negative control.
After the enzymatic reaction, 5 μl each of an europium solution (a solution obtained by dissolving anti-mouse IgG-cryptate [SCETI Medical Labo K.K.] and anti-phosphorylation S6K [Thr389] antibody [Cell Signaling Technology Inc.] in 50 mM HEPES [pH 7.5], 100 mM EDTA, and 1.5 mg/ml BSA) and an XL665 solution (a solution obtained by dissolving Streptavidin-XL 665 [SCETI Medical Labo K.K.] in 50 mM HEPES [pH 7.5], 100 mM EDTA, 0.8 M KF, and 1.5 mg/ml BSA) were added in this order and mixed and the resulting mixture was left standing overnight at 4° C. On the following day, the mixture was returned to room temperature and then irradiated with 337-nm excitation light and fluorescence at 620 and 665 nm was measured with RUBYstar (BMG LABTECH JAPAN Ltd.).
mTOR inhibitory activity (%) was calculated using the ratio calculated from the measured values as an indicator of enzyme activity. Here, the ratio was calculated by the following formula (1). Ratio=10,000×fluorescence at 665 nm/fluorescence at 620 nm (1)
mTOR enzyme inhibitory activity (%) was calculated by the following formula (2). mTOR enzyme inhibitory activity (%)=100×[(P−S)/(P−N)] (2) P: Ratio in positive control well N: Ratio in negative control well S: Ratio in well containing the test compound
Furthermore, an optimal curve was created using the concentrations of the serially diluted test compound solutions and mTOR enzyme inhibitory activity (%) at each concentration to obtain the concentration showing 50% inhibition as the IC50 value of mTOR enzyme inhibitory activity.

[2] = tested on: human endometrial cancer cell strain AN3CA; test: Cell growth inhibition test (MTT), AN3CA; type: cell-based; details: AN3-CA, 72 h, 3 days culture, read-out: concentration exhibiting anti-cell effect (GI50)
Protocol: (§1) After a cultured cancer cell strain was treated with a test compound for a predetermined period, a cell growth inhibition test was performed by measuring the living cell count by the 3-(4,5-dimethylthiazol-2-yl)-2,5-diphenyltetrazoliumbromide (MTT) method.
(§2) Human endometrial cancer cell strain AN3CA, human ovary cancer cell strain IGROV1, and human colon cancer cell strain HT29 were seeded in a 96-well plate at 5000, 1000, and 5000 cells, respectively, per well. On the following day of seeding, a test compound having a predetermined concentration was added and the culture was continued at 37° C. in 5% CO2 for 3 days. On the final day of culture, an MTT reaction solution was added and the resulting mixture was reacted for 4 hours to form formazan by dehydrogenases contained in living cells. Subsequently, the culture broth was removed, DMSO was added to solubilize formazan, and the amount of produced formazan was determined by measuring absorbance at 540 nm using a microplate reader.
(§3) Since correlations of the amount of produced formazan and the living cell count had been confirmed, the cell growth rate was calculated by the following formula. Cell growth rate (T/C %) after addition of test compound=100×[(B−C)/(A−C)] A: Absorbance of well not containing test compound (final culture day) B: Absorbance of well containing test compound (final culture day) C: Absorbance of well immediately before addition of test compound (following day of cell seeding)
(§4) Furthermore, the cell growth rate at each concentration of serially diluted test compound solutions was obtained, and the concentration of the test compound resulting in a 50% growth rate was obtained as the GI50 value from two concentrations including 50% therebetween and the growth rates were selected.

[3] = tested on: human ovary cancer cell strain IGROV1; test: Cell growth inhibition test (MTT), IGROV1; type: cell-based; details: IGROV-1, 72 h, IGROV1, 3 days culture, read-out: concentration exhibiting anti-cell effect (GI50)
Protocol: as §1, §2, §3, §4

[4] = tested on: human colon cancer cell strain HT29; test: Cell growth inhibition test (MTT), HT29; type: cell-based; details: HT-29, 72 h, HT29, 3 days culture, read-out: concentration exhibiting anti-cell effect (GI50)
Protocol: as §1, §2, §3, §4

SMILES	pIC50 (PI3Kα)	pIC50 [1]	GI50 [2] [µM]	GI50 [3] [µM]	GI50 [4] [µM]
CC(C)Cn1c(N2C[C@H](C)NC[C@H]2C)nc2c(N3CCOCC3)nc(-c3cnc(N)nc3)nc21 (relative stereo) [Example 50, 5-[8-(trans-2,5-Dimethylpiperazin-1-yl)-9-isobutyl-6-morpholin-4-yl-9H-purin-2-yl]pyrimidin-2-amine]	7.70 to 8.00	7.00 to 7.52	≤ 5	≤ 5	≤ 5
CNc1ncc(-c2nc(N3CCOCC3)c3nc(N4CCN(S(C)(=O)=O)CC4)n(CC4CC4)c3n2)cn1 [Example 4, 5-{9-(Cyclopropylmethyl)-8-[4-(methylsulfonyl)piperazin-1-yl]-6-morpholin-4-yl-9H-purin-2-yl}-N-methylpyrimidin-2-amine]	7.70 to 8.00	7.00 to 7.52	≤ 5	≤ 5	≤ 5
CS(=O)(=O)N1CCN(c2nc3c(N4CCOCC4)nc(-c4cnc(N)nc4)nc3n2CC2CCOC2)CC1 (stereo not drawn) [Example 5, 5-{8-[4-(Methylsulfonyl)piperazin-1-yl]-6-morpholin-4′-yl-9-(tetrahydrofuran-3-ylmethyl)-9H-purin-2-yl}pyrimidin-2-amine]	7.70 to 8.00 and 7.30 to 7.70	7.52 to 8.00	≤ 5	≤ 5	≤ 5
CS(=O)(=O)N1CCN(c2nc3c(N4CCOCC4)nc(-c4cnc(N)nc4C(F)(F)F)nc3n2CC2CC2)CC1 [Example 7, 5-{9-(Cyclopropylmethyl)-8-[4-(methylsulfonyl)piperazin-1-yl]-6-morpholin-4-yl-9H-purin-2-yl}-4-(trifluoromethyl)pyrimidin-2-amine]	> 8.00	6.30 to 7.00	≤ 5	≤ 5	≤ 5
CC(=O)N1CCN(c2nc3c(N4CCOCC4)nc(-c4cnc(N)nc4)nc3n2CC(F)(F)F)CC1 [Example 9, 5-[8-(4-Acetylpiperazin-1-yl)-6-morpholin-4-yl-9-(2,2,2-trifluoroethyl)-9H-purin-2-yl]pyrimidin-2-amine]	7.70 to 8.00	> 8.00	≤ 5	≤ 5	≤ 5
CN1CCN(c2nc3c(N4CCOCC4)nc(-c4cnc(N)nc4)nc3n2CC(F)(F)F)CC1 [Example 13, 5-[8-(4-Methylpiperazin-1-yl)-6-morpholin-4-yl-9-(2,2,2-trifluoroethyl)-9H-purin-2-yl]pyrimidin-2-amine]	> 8.00	7.52 to 8.00	≤ 5	≤ 5	≤ 5
Cc1nc(N)ncc1-c1nc(N2CCOCC2)c2nc(N3C[C@@H](C)N[C@@H](C)C3)n(CC3CC3)c2n1 [Example 15, 5-[9-(Cyclopropylmethyl)-8-(cis-3,5-dimethylpiperazin-1-yl)-6-morpholin-4-yl-9H-purin-2-yl]-4-methylpyrimidin-2-amine]	7.30 to 7.70	6.30 to 7.00	≤ 5	≤ 5	≤ 5
CNc1ncc(-c2nc(N3CCOCC3)c3nc(N4C[C@@H](C)N[C@@H](C)C4)n(CC4CC4)c3n2)cn1 [Example 16, 5-{9-(Cyclopropylmethyl)-8-(cis-3,5-dimethylpiperazin-1-yl)-6-morpholin-4-yl-9H-purin-2-yl}-N-methylpyrimidin-2-amine]	7.30 to 7.70	7.00 to 7.52	≤ 5	≤ 5	≤ 5
Cc1nc(N(C)C)ncc1-c1nc(N2CCOCC2)c2nc(N3CCN(S(C)(=O)=O)CC3)n(CC3CC3)c2n1 [Example 44, 5-{9-(Cyclopropylmethyl)-8-[4-(methylsulfonyl)piperazin-1-yl]-6-morpholin-4-yl-9H-purin-2-yl}-N,N,4-trimethylpyrimidin-2-amine]		≤ 6.30			
Cc1nc(N)ncc1-c1nc(N2CCOCC2)c2nc(N3CCC(C(N)=O)CC3)n(CC3CC3)c2n1 [Example 47, 1-[2-(2-Amino-4-methylpyrimidin-5-yl)-9-(cyclopropylmethyl)-6-morpholin-4-yl-9H-purin-8-yl]piperidine-4-carboxamide methanesulfonate]	7.70 to 8.00				
